Results as given in PubChem BioAssay (NCI).
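GI50: concentration for 50% inhibition of growth. At the TGI there is no net growth.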

Key:
Assay in all cases: NCI tumour cell line growth inhibition, 384-well format
HT29 colon = tested on: HT29 colon
MOLT-4 leukemia = tested on: MOLT-4 leukemia
HCT-15 colon = tested on: HCT-15 colon
SF-268 CNS = tested on: SF-268 CNS
A498 renal = tested on: A498 renal
SN12C renal = tested on: SN12C renal
MCF7 breast = tested on: MCF7 breast
SNB-75 CNS = tested on: SNB-75 CNS
SK-MEL-5 melanoma = tested on: SK-MEL-5 melanoma
786-0 renal = tested on: 786-0 renal
TK-10 renal = tested on: TK-10 renal
MALME-3M melanoma = tested on: MALME-3M melanoma
CAKI-1 renal = tested on: CAKI-1 renal
OVCAR-4 ovarian = tested on: OVCAR-4 ovarian
OVCAR-8 ovarian = tested on: OVCAR-8 ovarian
HOP-62 NSCLC = tested on: HOP-62 NSCLC
SW-620 colon = tested on: SW-620 colon
U251 glioblastoma = tested on: U251 glioblastoma
NCI/ADR-RES ovarian = tested on: NCI/ADR-RES ovarian
RPMI-8226 leukemia = tested on: RPMI-8226 leukemia
BT-549 breast = tested on: BT-549 breast
A549 NSCLC = tested on: A549 NSCLC
NCI-H226 lung = tested on: NCI-H226 lung
HL-60(TB) leukemia = tested on: HL-60(TB) leukemia
MDA-MB-231 breast = tested on: MDA-MB-231 breast
T-47D breast = tested on: T-47D breast
DU-145 prostate = tested on: DU-145 prostate
EKVX NSCLC = tested on: EKVX NSCLC
NCI-H23 lung = tested on: NCI-H23 lung
COLO 205 colon = tested on: COLO 205 colon
PC-3 prostate = tested on: PC-3 prostate
HCC-2998 colon = tested on: HCC-2998 colon
IGROV1 ovarian = tested on: IGROV1 ovarian
NCI-H460 NSCLC = tested on: NCI-H460 NSCLC
HOP-92 NSCLC = tested on: HOP-92 NSCLC
ACHN renal = tested on: ACHN renal
CCRF-CEM leukemia = tested on: CCRF-CEM leukemia
KM12 colon = tested on: KM12 colon
OVCAR-3 ovarian = tested on: OVCAR-3 ovarian
SF-539 CNS = tested on: SF-539 CNS
SR leukemia = tested on: SR leukemia
SK-MEL-2 melanoma = tested on: SK-MEL-2 melanoma
NCI-H522 lung = tested on: NCI-H522 lung
MDA-MB-435 melanoma = tested on: MDA-MB-435 melanoma
SNB-19 CNS = tested on: SNB-19 CNS
UACC-257 melanoma = tested on: UACC-257 melanoma
RXF 393 renal = tested on: RXF 393 renal
OVCAR-5 ovarian = tested on: OVCAR-5 ovarian
SK-OV-3 ovarian = tested on: SK-OV-3 ovarian
MDA-MB-468 breast = tested on: MDA-MB-468 breast
NCI-H322M lung = tested on: NCI-H322M lung
SK-MEL-28 melanoma = tested on: SK-MEL-28 melanoma
UACC-62 melanoma = tested on: UACC-62 melanoma
HS 578T breast = tested on: HS 578T breast
M14 melanoma = tested on: M14 melanoma
SF-295 CNS = tested on: SF-295 CNS
K-562 leukemia = tested on: K-562 leukemia
UO-31 renal = tested on: UO-31 renal
HCT-116 colon = tested on: HCT-116 colon
LOX IMVI melanoma = tested on: LOX IMVI melanoma

## C=C1C(=O)OC(CCCCCCCC)C1C(=O)O (stereo not given)
HT29 colon
  GI50: 23.4 µM
  TGI: 49.4 µM
MOLT-4 leukemia
  GI50: 14.6 µM
  TGI: 27.9 µM
HCT-15 colon
  GI50: 19.4 µM
  TGI: 37.1 µM
SF-268 CNS
  GI50: 19 µM
  TGI: 37 µM
A498 renal
  GI50: 22.1 µM
  TGI: 45.5 µM
SN12C renal
  GI50: 19 µM
  TGI: 36.1 µM
MCF7 breast
  GI50: 21.1 µM
  TGI: 39.6 µM
SNB-75 CNS
  GI50: 16.1 µM
  TGI: 32.1 µM
SK-MEL-5 melanoma
  GI50: 18.3 µM
  TGI: 32.5 µM
786-0 renal
  GI50: 16.7 µM
  TGI: 31.6 µM
TK-10 renal
  GI50: 34.3 µM
  TGI: > 100 µM
MALME-3M melanoma
  GI50: 15.5 µM
  TGI: 29.2 µM
CAKI-1 renal
  GI50: 16.5 µM
  TGI: 30.7 µM
OVCAR-4 ovarian
  GI50: 16.9 µM
  TGI: 32.1 µM
OVCAR-8 ovarian
  GI50: 24.9 µM
  TGI: 54.9 µM
HOP-62 NSCLC
  GI50: 12.9 µM
  TGI: 28.6 µM
SW-620 colon
  GI50: 18.7 µM
  TGI: 33.2 µM
U251 glioblastoma
  GI50: 20.6 µM
  TGI: 37.9 µM
NCI/ADR-RES ovarian
  GI50: 22.3 µM
  TGI: 46.2 µM
RPMI-8226 leukemia
  GI50: 10.3 µM
  TGI: 22.1 µM
BT-549 breast
  GI50: 14.8 µM
  TGI: 38.3 µM
A549 NSCLC
  GI50: 20.9 µM
  TGI: 41.8 µM
NCI-H226 lung
  GI50: 27.9 µM
  TGI: 49.7 µM
HL-60(TB) leukemia
  GI50: 13.5 µM
  TGI: 26.4 µM
MDA-MB-231 breast
  GI50: 30.3 µM
  TGI: > 100 µM
T-47D breast
  GI50: 18.2 µM
  TGI: 32.3 µM
DU-145 prostate
  GI50: 17.4 µM
  TGI: 31.5 µM
EKVX NSCLC
  GI50: 20.4 µM
  TGI: 37.7 µM
NCI-H23 lung
  GI50: 14 µM
  TGI: 27.6 µM
COLO 205 colon
  GI50: 25.5 µM
  TGI: 40.4 µM
PC-3 prostate
  GI50: 21 µM
  TGI: 39.1 µM
HCC-2998 colon
  GI50: 20.6 µM
  TGI: 35.2 µM
IGROV1 ovarian
  GI50: 19.2 µM
  TGI: 37.4 µM
NCI-H460 NSCLC
  GI50: 17.1 µM
  TGI: 31.3 µM
HOP-92 NSCLC
  GI50: 19.8 µM
  TGI: 41.1 µM
ACHN renal
  GI50: 21.4 µM
  TGI: 39.3 µM
CCRF-CEM leukemia
  GI50: 12.2 µM
  TGI: 24.8 µM
KM12 colon
  GI50: 14.6 µM
  TGI: 28.2 µM
OVCAR-3 ovarian
  GI50: 12.8 µM
  TGI: 26.2 µM
SF-539 CNS
  GI50: 20.1 µM
  TGI: 34.9 µM
SR leukemia
  GI50: 3.03 µM
  TGI: 9.89 µM
SK-MEL-2 melanoma
  GI50: 28.7 µM
  TGI: 46.6 µM
NCI-H522 lung
  GI50: 6.51 µM
  TGI: 19.2 µM
MDA-MB-435 melanoma
  GI50: 23.3 µM
  TGI: 44 µM
SNB-19 CNS
  GI50: 22.4 µM
  TGI: 47.3 µM
UACC-257 melanoma
  GI50: 12.7 µM
  TGI: 27.3 µM
RXF 393 renal
  GI50: 11.5 µM
  TGI: 24.1 µM
OVCAR-5 ovarian
  GI50: 39.3 µM
  TGI: > 100 µM
SK-OV-3 ovarian
  GI50: 23.6 µM
  TGI: 45.2 µM
MDA-MB-468 breast
  GI50: 3.04 µM
  TGI: 6.75 µM
NCI-H322M lung
  GI50: 24.3 µM
  TGI: 50.3 µM
SK-MEL-28 melanoma
  GI50: 23.3 µM
  TGI: 46.8 µM
UACC-62 melanoma
  GI50: 33.9 µM
  TGI: > 100 µM
HS 578T breast
  GI50: 12.2 µM
  TGI: 25.5 µM
M14 melanoma
  GI50: 17.8 µM
  TGI: 34.5 µM
SF-295 CNS
  GI50: 23.5 µM
  TGI: 57.5 µM

## CC/C(=C(\c1ccccc1)c1ccc(OCCN(C)C)cc1)c1ccccc1
HT29 colon
  GI50: 2.2 µM
  TGI: 4.16 µM
MOLT-4 leukemia
  GI50: 2.56 µM
  TGI: 6 µM
HCT-15 colon
  GI50: 2.05 µM
  TGI: 3.96 µM
A498 renal
  GI50: 4.05 µM
  TGI: 15 µM
SN12C renal
  GI50: 13.6 µM
  TGI: 26.7 µM
MCF7 breast
  GI50: 1.65 µM
  TGI: 7.98 µM
786-0 renal
  GI50: 4.92 µM
  TGI: 15.7 µM
TK-10 renal
  GI50: 12.7 µM
  TGI: 25.5 µM
MALME-3M melanoma
  GI50: 1.99 µM
  TGI: 3.66 µM
CAKI-1 renal
  GI50: 8.23 µM
  TGI: 20.8 µM
OVCAR-4 ovarian
  GI50: 12.9 µM
  TGI: 25.7 µM
OVCAR-8 ovarian
  GI50: 11.5 µM
  TGI: 24 µM
HOP-62 NSCLC
  GI50: 12.9 µM
  TGI: 25.7 µM
SW-620 colon
  GI50: 9.21 µM
  TGI: 21.6 µM
U251 glioblastoma
  GI50: 5.21 µM
  TGI: 16.2 µM
NCI/ADR-RES ovarian
  GI50: 12 µM
  TGI: 24.6 µM
RPMI-8226 leukemia
  GI50: 1.94 µM
  TGI: 3.66 µM
BT-549 breast
  GI50: 10.7 µM
  TGI: 22.8 µM
K-562 leukemia
  GI50: 2510 nM
  TGI: 5.33 µM
A549 NSCLC
  GI50: 10.9 µM
  TGI: 23.7 µM
NCI-H226 lung
  GI50: 7.96 µM
  TGI: 20.2 µM
HL-60(TB) leukemia
  GI50: 1.93 µM
  TGI: 3.39 µM
MDA-MB-231 breast
  GI50: 11.5 µM
  TGI: 24 µM
T-47D breast
  GI50: 5.64 µM
  TGI: 19.7 µM
DU-145 prostate
  GI50: 12.8 µM
  TGI: 25.9 µM
EKVX NSCLC
  GI50: 14.7 µM
  TGI: 28.1 µM
UO-31 renal
  GI50: 14.9 µM
  TGI: 28.4 µM
NCI-H23 lung
  GI50: 10.6 µM
  TGI: 22.6 µM
PC-3 prostate
  GI50: 4.18 µM
  TGI: 13.7 µM
IGROV1 ovarian
  GI50: 14.2 µM
  TGI: 27.4 µM
HOP-92 NSCLC
  GI50: 14.7 µM
  TGI: 28.1 µM
ACHN renal
  GI50: 16.4 µM
  TGI: 30.3 µM
KM12 colon
  GI50: 3.27 µM
  TGI: 10.7 µM
OVCAR-3 ovarian
  GI50: 9.12 µM
  TGI: 21.3 µM
HCT-116 colon
  GI50: 5.26 µM
  TGI: 17.5 µM
SK-MEL-2 melanoma
  GI50: 4.1 µM
  TGI: 15.8 µM
NCI-H522 lung
  GI50: 11.4 µM
  TGI: 23.7 µM
MDA-MB-435 melanoma
  GI50: 7.19 µM
  TGI: 19.5 µM
LOX IMVI melanoma
  GI50: 4.94 µM
  TGI: 17 µM
UACC-257 melanoma
  GI50: 1.97 µM
  TGI: 3.56 µM
RXF 393 renal
  GI50: 3.43 µM
  TGI: 8.75 µM
OVCAR-5 ovarian
  GI50: 8.67 µM
  TGI: 21 µM
SK-OV-3 ovarian
  GI50: 10.6 µM
  TGI: 22.8 µM
MDA-MB-468 breast
  GI50: 4.92 µM
  TGI: 16 µM
NCI-H322M lung
  GI50: 6.11 µM
  TGI: 18.4 µM
SK-MEL-28 melanoma
  GI50: 5.35 µM
  TGI: 16.8 µM
UACC-62 melanoma
  GI50: 2.77 µM
  TGI: 7.86 µM
HS 578T breast
  GI50: 14 µM
  TGI: 27.2 µM
M14 melanoma
  GI50: 1.89 µM
  TGI: 3.51 µM
